EP2506856B1, “AMINOSTEROID COMPOUNDS FOR TOPIC LOCAL APPLICATION FOR SKIN-MUCOSA DECOLONISATION OF STAPHYLOCOCCUS AUREUS” (Assistance Publique Hôpitaux de Marseille, priority 2009, dated 2011)
Values after ≈ are worked out from the molar mass of the structure shown. Where two headings read alike, the source gives them in different places.

Columns and labels:
S. aureus ATCC 25923 = assay: MIC (CMI) determination on reference strain; type: cell-based, Staphylococcus aureus
Experimental: Les composés IIIa et IIIb (selon l'invention) avec R=-(CH2)n1-NHZ et n1=2 à 9 présentent une CMI de 2,5 à 20 µg/ml. Tableau 1 : CMI des dérivés III-a sur S. aureus ATCC 25923
(§1) Le composé III-1 présente la meilleure activité avec une CMI de 1µg/ml pour S. Aureus. Tableau 2 : CMI de la squalamine Ia et des dérivés II-1 et III-1 sur différentes souches de S. aureus.

[1] = system: Staphylococcus aureus (MRSA); assay: MIC (CMI) determination on MRSA strain; type: cell-based; details: read-out: CMI
Experimental: as §1

[2] = system: S. aureus (souche de référence ATCC 25923); assay: Comparative mouse skin colonisation model, single application of ointment, counts at 30 minutes and 1 hour; type: in vivo, souris; details: for activité de décolonisation par rapport à la squalamine et analogues: comparative ointments, 30 minutes and 1 hour
Experimental: On a également utilisé à fin de comparaisons une pommade à base de mupirocine (Bactroban®), d'acide fusidique (Fucidine®) ou de vancomycine et vaseline à titre de contrôle dans les mêmes conditions expérimentales. Ainsi, 10 µl d'une suspension bactérienne calibrée à 10^6 CFU/ml S. aureus a été appliquée sur la peau préalablement rasée d'une série de 6 souris sur deux quadrants différents (figure 4). Après 2 heures d'incubation et séchage, la pommade a été appliquée sur un des deux quadrants de peau contre une pommade contenant l'excipient seul sur l'autre quadrant. Les quantités de S. aureus, au temps 0 (avant application de la pommade) puis après 30 minutes et 1 heure d'application, ont été déterminées par écouvillonnage cutané et mise en culture sur milieu Chapman pour le dénombrement des colonies comme décrit précédemment.

[3] = system: différentes souches de S. aureus (y compris des souches résistantes à la méticilline (MRSA)); details: different S. aureus strains including MRSA; cited from earlier work
[4] = system: S. aureus (souche de référence ATCC 25923); assay: Mouse skin colonisation model, single application of 1% ointment, counts at day 1 and day 2; type: in vivo, souris; details: figure 4, from environ 10^6 CFU/ml at J0
Experimental: Afin de tester l'activité in vivo des composés, on a inventé un modèle expérimental de colonisation cutanéo-muqueuse à S. aureus chez la souris. […] Brièvement, 10 µl d'une suspension bactérienne calibrée à 10^8 CFU/ml S. aureus a été appliquée sur la peau préalablement rasée des souris sur deux quadrants différents (figure 3). La colonisation par S. aureus était ensuite suivie quotidiennement pendant 2 jours par écouvillonnage cutané des souris, reprise de l'écouvillon dans 1 ml d'eau stérile et mise en culture de 100 µl sur gélose Chapman à 37°C pendant 24 heures avant énumération des colonies bactériennes.
De la même manière, 10 µl d'une suspension bactérienne calibrée à 10^8 CFU/ml S. aureus a été appliquée sur la peau préalablement rasée d'une série de 4 souris sur deux quadrants différents (figure 3). […] Les quantités de S. aureus, au temps 0 (avant application de la pommade) puis aux jours 1 et 2 (J1 et J2) après application, ont été déterminées par écouvillonnage cutané et mise en culture sur milieu Chapman pour le dénombrement des colonies comme décrit précédemment.

Staphylococcus = details: au bout de 24 heures; cited from earlier work
Staphylococcus aureus = details: 1% ointment, 2 fois/jour for 48 heures before surgery, fosses nasales; cited from earlier work
[5] = Staphylococcus aureus, ATCC25923, read-out: CMI
[6] = from environ 2.10^4 CFU/ml at t=0, single application of 1% ointment
[7] = Staphylococcus aureus, ATCC25923, dérivés III-a, R=-(CH2)n1-NH2, S. aureus ATCC 25923, read-out: CMI

CC(C)CCC[C@@H](C)[C@H]1CC[C@H]2[C@@H]3[C@@H](NCCCCN)C=C4C[C@@H](O)CC[C@]4(C)[C@H]3CC[C@]12C [II-1, 7β-(1,4-diaminobutane)-cholest-5-ene-3β-ol]
MIC (S. aureus ATCC 25923; [5]): 2 µg/mL (≈ 4.23 µM) | MIC ([1]; Staphylococcus aureus, MRSA): 2 µg/mL (≈ 4.23 µM) | décolonisation escomptée en moins de 24 heures ([2]; expected from the 60 minute result): ≥ 99,90% | concentration au bout de 60 minutes [2, 6]: 55 CFU/ml | CMI [3]: 2 µg/mL

C[C@H](NCCN)[C@H]1CC[C@H]2[C@@H]3CCC4=C[C@@H](NCCN)CC[C@]4(C)[C@H]3CC[C@]12C [III-a n1=2]
MIC (S. aureus ATCC 25923; [7]): 20 µg/mL (≈ 49.7 µM)

C[C@H](NCCCN)[C@H]1CC[C@H]2[C@@H]3CCC4=C[C@@H](NCCCN)CC[C@]4(C)[C@H]3CC[C@]12C [III-a n1=3]
MIC (S. aureus ATCC 25923; [7]): 5 µg/mL (≈ 11.6 µM)

C[C@H](NCCCCN)[C@H]1CC[C@H]2[C@@H]3CCC4=C[C@@H](NCCCCN)CC[C@]4(C)[C@H]3CC[C@]12C [III-a n1=4]
MIC (S. aureus ATCC 25923; [5]): 5 µg/mL (≈ 10.9 µM)

C[C@H](NCCCCCN)[C@H]1CC[C@H]2[C@@H]3CCC4=C[C@@H](NCCCCCN)CC[C@]4(C)[C@H]3CC[C@]12C [III-a n1=5]
MIC (S. aureus ATCC 25923; [7]): 5 µg/mL (≈ 10.3 µM)

C[C@H](NCCCCCCN)[C@H]1CC[C@H]2[C@@H]3CCC4=C[C@@H](NCCCCCCN)CC[C@]4(C)[C@H]3CC[C@]12C [III-a n1=6]
MIC (S. aureus ATCC 25923; [7]): 2.5 µg/mL (≈ 4.86 µM)

C[C@H](NCCCCCCCN)[C@H]1CC[C@H]2[C@@H]3CCC4=C[C@@H](NCCCCCCCN)CC[C@]4(C)[C@H]3CC[C@]12C [III-a n1=7]
MIC (S. aureus ATCC 25923; [5]): 2.5 µg/mL (≈ 4.6 µM)

C[C@H](NCCCCCCCCN)[C@H]1CC[C@H]2[C@@H]3CCC4=C[C@@H](NCCCCCCCCN)CC[C@]4(C)[C@H]3CC[C@]12C [III-a n1=8]
MIC (S. aureus ATCC 25923; [7]): 2.5 µg/mL (≈ 4.38 µM)

C[C@H](NCCCCCCCCCN)[C@H]1CC[C@H]2[C@@H]3CCC4=C[C@@H](NCCCCCCCCCN)CC[C@]4(C)[C@H]3CC[C@]12C [III-a n1=9]
MIC (S. aureus ATCC 25923; [7]): 5 µg/mL (≈ 8.35 µM)

CC(C)[C@@H](CC[C@@H](C)[C@H]1CC[C@H]2[C@@H]3[C@H](O)C[C@H]4C[C@@H](NCCCNCCCCN)CC[C@]4(C)[C@H]3CC[C@]12C)OS(=O)(=O)O [Ia, squalamine]
MIC (S. aureus ATCC 25923; ATCC25923, Staphylococcus aureus ATCC 25923, read-out: CMI): 2 µg/mL (≈ 3.18 µM) | MIC ([1]; Staphylococcus aureus (MRSA)): 2 µg/mL (≈ 3.18 µM) | concentration en bactéries Staphylococcus aureus à J1 [4]: 10^2 CFU/ml | concentration en bactéries Staphylococcus aureus à J2 [4]: ~10^1 CFU/ml | diminution du nombre de CFU/ml après 1 heure ([2]; 1% ointment, single application, figure 6): 4 logarithmes | concentration à t=30 minutes [2, 6]: < 1 CFU/ml | CMI [3]: 2 µg/mL

CC(=O)O[C@H]1C[C@@]2(C)[C@@H](C[C@@H](O)[C@H]3[C@@]4(C)CC[C@@H](O)[C@@H](C)[C@@H]4CC[C@@]32C)/C1=C(\CCC=C(C)C)C(=O)O [acide fusidique]
activité de décolonisation par rapport à la squalamine et analogues [2]: activité nettement moindre et moins rapide

C/C(=C\C(=O)OCCCCCCCCC(=O)O)C[C@@H]1OC[C@H](C[C@@H]2O[C@H]2[C@@H](C)[C@H](C)O)[C@@H](O)[C@H]1O [mupirocine]
activité de décolonisation par rapport à la squalamine et analogues [2]: activité nettement moindre et moins rapide | division de la concentration de bactéries Staphylococcus (Staphylococcus): 5.10^2 CFU/ml | décolonisation des bactéries Staphylococcus aureus (Staphylococcus aureus): 99,9%

CN[C@H](CC(C)C)C(=O)N[C@H]1C(=O)N[C@@H](CC(N)=O)C(=O)N[C@H]2C(=O)N[C@H]3C(=O)N[C@H](C(=O)N[C@H](C(=O)O)c4cc(O)cc(O)c4-c4cc3ccc4O)[C@H](O)c3ccc(c(Cl)c3)Oc3cc2cc(c3O[C@@H]2O[C@H](CO)[C@@H](O)[C@H](O)[C@H]2O[C@H]2C[C@](C)(N)[C@H](O)[C@H](C)O2)Oc2ccc(cc2Cl)[C@H]1O [vancomycine]
activité de décolonisation par rapport à la squalamine et analogues [2]: activité nettement moindre et moins rapide
